What was measured:
[1] = Stability study at 25° C./60% RH, 40° C./75% RH and 60° C. (XRPD, HPLC purity, impurity tracking); conditions: for XRPD: * = crystalline salt; for HPLC: based on free acid
Source text: Stability of HBI-3808 Sodium Salt Pattern 2 was studied over 13 weeks.
Table 2F presents impurity tracking results from a 13-week stability study of HBI-3808 sodium salt of Pattern 2. […]

[2] = Hydration study in methanol/water aw 0.1, 0.5 and 0.9; format: physicochemical
Source text: Hydration studies of ethanolamine salt.

[3] = 40° C./75% RH (open vial), 4 Weeks
[4] = 40° C./75% RH (open vial), 8 Weeks
[5] = 40° C./75% RH (open vial), 13 Weeks

XRPD [1, 3]: 1*
HPLC [1, 3]: 97.5 % area
XRPD [1, 4]: 1*
HPLC [1, 4]: 96.9 % area
XRPD [1, 5]: 1*
HPLC [1, 5]: 97.4 % area
RRT 0.801 impurity ([1]; 40° C./75% RH, 1 week): 0.10 % area
RRT 0.970 impurity ([1]; 40° C./75% RH, 1 week): 0.14 % area
RRT 1.000 (HBI-3808) ([1]; 40° C./75% RH, 1 week): 97.28 % area
RRT 1.025 (Isomer of HBI-3808) ([1]; 40° C./75% RH, 1 week): 2.48 % area
Total Impurities ([1]; 40° C./75% RH, 1 week): 2.72 % area
RRT 0.970 impurity ([1]; 40° C./75% RH, 2 weeks): 0.12 % area
RRT 1.000 (HBI-3808) ([1]; 40° C./75% RH, 2 weeks): 97.26 % area
RRT 1.025 (Isomer of HBI-3808) ([1]; 40° C./75% RH, 2 weeks): 2.40 % area
RRT 1.935 impurity ([1]; 40° C./75% RH, 2 weeks): 0.22 % area
Total Impurities ([1]; 40° C./75% RH, 2 weeks): 2.74 % area
RRT 0.970 impurity ([1]; 40° C./75% RH, 4 weeks): 0.11 % area
RRT 1.025 (Isomer of HBI-3808) ([1]; 40° C./75% RH, 4 weeks): 2.41 % area
Total Impurities ([1]; 40° C./75% RH, 4 weeks): 2.52 % area
RRT 0.970 impurity ([1]; 40° C./75% RH, 8 weeks): 0.21 % area
RRT 1.000 (HBI-3808) ([1]; 40° C./75% RH, 8 weeks): 96.88 % area
RRT 1.025 (Isomer of HBI-3808) ([1]; 40° C./75% RH, 8 weeks): 2.51 % area
RRT 1.767 impurity ([1]; 40° C./75% RH, 8 weeks): 0.40 % area
Total Impurities ([1]; 40° C./75% RH, 8 weeks): 3.12 % area
RRT 1.000 (HBI-3808) ([1]; 40° C./75% RH, 13 weeks): 97.41 % area
RRT 1.025 (Isomer of HBI-3808) ([1]; 40° C./75% RH, 13 weeks): 2.40 % area
RRT 1.935 impurity ([1]; 40° C./75% RH, 13 weeks): 0.20 % area
Total Impurities ([1]; 40° C./75% RH, 13 weeks): 2.59 % area
RRT 1.000 (HBI-3808) ([1]; 40° C./75% RH, T = 0): 97.82 % area
RRT 1.025 (Isomer of HBI-3808) ([1]; 40° C./75% RH, T = 0): 2.18 % area
Total Impurities ([1]; 40° C./75% RH, T = 0): 2.18 % area
HPLC/ % area ([1]; 60° C. (closed vial), 13 Weeks): 97.4 % area
XRPD ([1]; 60° C. (closed vial), 1 Week): 1*
HPLC ([1]; 60° C. (closed vial), 1 Week): 97.5 % area
XRPD ([1]; 60° C. (closed vial), 2 Weeks): 1*
HPLC ([1]; 60° C. (closed vial), 2 Weeks): 97.3 % area
XRPD ([1]; 60° C. (closed vial), 4 Weeks): 1*
HPLC ([1]; 60° C. (closed vial), 4 Weeks): 97.5 % area
XRPD ([1]; 60° C. (closed vial), 8 Weeks): 1*
HPLC ([1]; 60° C. (closed vial), 8 Weeks): 97.0 % area
XRPD ([1]; 60° C. (closed vial), 13 Weeks): 1*
HPLC ([1]; 60° C. (closed vial), 13 Weeks): 97.4 % area
RRT 0.801 impurity ([1]; 60° C., 1 week): 0.12 % area
RRT 1.000 (HBI-3808) ([1]; 60° C., 1 week): 97.46 % area
RRT 1.025 (Isomer of HBI-3808) ([1]; 60° C., 1 week): 2.43 % area
Total Impurities ([1]; 60° C., 1 week): 2.54 % area
RRT 0.970 impurity ([1]; 60° C., 2 weeks): 0.12 % area
RRT 1.000 (HBI-3808) ([1]; 60° C., 2 weeks): 97.27 % area
RRT 1.025 (Isomer of HBI-3808) ([1]; 60° C., 2 weeks): 2.41 % area
RRT 1.935 impurity ([1]; 60° C., 2 weeks): 0.20 % area
Total Impurities ([1]; 60° C., 2 weeks): 2.73 % area
RRT 0.970 impurity ([1]; 60° C., 4 weeks): 0.11 % area
RRT 1.000 (HBI-3808) ([1]; 60° C., 4 weeks): 97.49 % area
RRT 1.025 (Isomer of HBI-3808) ([1]; 60° C., 4 weeks): 2.40 % area
Total Impurities ([1]; 60° C., 4 weeks): 2.51 % area
RRT 0.970 impurity ([1]; 60° C., 8 weeks): 0.12 % area
RRT 1.000 (HBI-3808) ([1]; 60° C., 8 weeks): 97.04 % area
RRT 1.025 (Isomer of HBI-3808) ([1]; 60° C., 8 weeks): 2.49 % area
RRT 1.767 impurity ([1]; 60° C., 8 weeks): 0.35 % area
Total Impurities ([1]; 60° C., 8 weeks): 2.96 % area
RRT 1.000 (HBI-3808) ([1]; 60° C., 13 weeks): 97.41 % area
RRT 1.025 (Isomer of HBI-3808) ([1]; 60° C., 13 weeks): 2.41 % area
RRT 1.935 impurity ([1]; 60° C., 13 weeks): 0.18 % area
Total Impurities ([1]; 60° C., 13 weeks): 2.59 % area
RRT 1.000 (HBI-3808) ([1]; 60° C., T = 0): 97.82 % area
RRT 1.025 (Isomer of HBI-3808) ([1]; 60° C., T = 0): 2.18 % area
Total Impurities ([1]; 60° C., T = 0): 2.18 % area
input purity by HPLC ([1]; input material of the stability study (baseline)): 97.5 % area
XRPD of solids recovered at the end of the experiment [2]: consistent with ethanolamine salt
SMILES: C[C@@H]1CC[C@]2(C(=O)O)CC[C@]3(C)C(=CC[C@@H]4[C@@]5(C)C[C@@H](O)[C@H](O)[C@@](C)(CO)[C@@H]5CC[C@]43C)[C@@H]2[C@]1(C)O.NCCO [ethanolamine salt of HBI-3808, ETHANOLAMINE SALT OF 23-HYDROXYTORMENTIC ACID]

Reference: US20250326785A1, “SODIUM SALT AND ETHANOLAMINE SALT OF 23-HYDROXYTORMENTIC ACID” (HUYABIO International, LLC, priority 2024, published 2025)
